Source: paper PMC4744570 (Pharmaceutical research, 2015)

Assays:
[1] = Lung pharmacokinetic profiling in guinea pigs after intratracheal instillation; format: in vivo, guinea pigs (Cavia porcellus); details: male, guinea pig, 1.6 mg
[2] = parent drug; cited from earlier work
[3] = test system: P. aeruginosa; details: cited from earlier work

Cmax ([1]; inhaled or intranasal): > 70000 ng/mL
concentration at 3 h ([1]; other: intratracheal): < 1000 ng/mL
concentration at 9 h ([1]; other: intratracheal): 12 ng/mL
concentration at 12 h ([1]; other: intratracheal): 10 ng/mL
SMILES: C[C@@H](O)[C@H]1C(=O)N2C(C(=O)O)=C(S[C@@H]3CN[C@H](C(=O)N(C)C)C3)[C@H](C)[C@H]12 [meropenem]
solubility (S) in water [2]: > 50 mg/mL
MIC90 [3]: 8,000 ng/mL
